From patent US20240366543A1, “METHODS OF TREATING METHYLMALONIC ACIDEMIA AND PROPIONIC ACIDEMIA” (HemoShear Therapeutics, Inc., priority 2021, published 2024)
In brackets after ≈: the same amount, converted by molar mass. Several values for one entry are separate records, joined by “and”; a condition that tells them apart may be missing. Equal entries are not always repeated.

How the values were obtained:
[1] = system: primary hepatocytes of methylmalonic acidemia patients; assay: Propionyl-CoA and methylmalonyl-CoA from 13C-labelled sources in MMA primary hepatocytes (Example 2); type: cell-based, human
Experimental: Primary hepatocytes isolated from livers of methylmalonic acidemia patients are treated with increasing doses of Compound 5 (0, 0.1, 0.3, 1, 3, 10, 30, 100 µM) for 30 min. After 30 minutes the cells are challenged with the different sources of P-CoA, which may include 13C-KIVA (1 mM), ^13C-isoleucine (3 mM), ^13C-threonine (5 mM), ^13C-methionine (5 mM), ^13C-heptanoate (100 μM), or ^13C-propionate (5 mM) for 60 minutes. At the end of the challenge period, media is removed and the cells are lysed with 70% MeCN and 0.1% TFA containing 100 μM of ethymalonyl-CoA as an internal standard and harvested. Cell lysates are processed for HTMS/MS analysis.

[2] = system: primary hepatocytes (pHeps) from PA donors; assay: HemoShear REVEAL-Tx Technology, PA pHeps; type: cell-based, human
Description: (§1) For this experiment, we deployed the HemoShear REVEAL-Tx™ technology, which is based on the cone-and-plate configuration or viscometer combined with a porous polycarbonate membrane that mimics a filtering layer of sinusoidal endothelial cells (see: Dash A, Deering TG, Marukian S, et al. Physiological Hemodynamics and Transport Restore Insulin and Glucagon Responses in a Normal Glucose Milieu in Hepatocytes In Vitro. 73rd Scientific Sessions of the American Diabetes Association, 2013 (Chicago), and U.S. Pat. Nos. 7,811,782 and 9,500,642, and 9,617,521, each of which is incorporated by reference herein in its entirety).
(§2) Hepatocytes from propionic academia patients are plated in a collagen gel sandwich on one side of the membrane replicating the polarized orientation found in vivo within the hepatic sinusoids. On the other side, medium is continuously perfused and surface shear rates are applied across a range of physiological values derived from sinusoidal flow rates in vivo while also controlling transport in the system with in- and out-flow tubing to each compartment. Effectively, this creates a flow-based culture system where hepatocytes are shielded from direct effects of flow, as they would be in vivo, but perfusion, nutrient gradients, and interstitial fluid movement are maintained.
Biomarker levels are normalized to cell counts and cell volume to account for differences in the number of cells plated for each donor. […] This is most likely due to the presence of ^12C-succinyl-CoA in the sample, which has the same mass. In experiments described below, M-CoA is labeled with ^13C to determine a more accurate percent reduction. Compound 5 reduced the C3 concentration and the C3/C2 ratio with an EC50 similar to that for the reduction in P-CoA (FIGS. 3C, 3D).

[3] = system: primary hepatocyte model of isovaleric acidemia; assay: Isovaleryl-CoA from 13C-leucine in primary hepatocyte model of isovaleric acidemia (Example 4); type: cell-based; details: primary hepatocytes with/without isovaleryl-CoA dehydrogenase inhibitor
Experimental: Primary hepatocytes are treated with increasing doses of Compound 5 (0, 0.1, 0.3, 1, 3, 10, 30, 100 μM) with and without an inhibitor for isovaleryl-CoA dehydrogenase for 30 min. After 30 min the cells are challenged with 13C-leucine. At the end of the challenge period, media is removed and the cells are lysed with 70% MeCN and 0.1% TFA containing 100 μM of ethymalonyl-CoA as an internal standard and harvested. Cell lysates are processed for HTMS/MS analysis.

MMA pHeps = assay: Static cell culture, MMA pHeps, low/high propiogenic media; type: cell-based, human; details: for Percent change (30 μM), 12C-Acetyl-CoA / Percent change (30 μM), CoASH: static culture 1.5 h
Experimental: (§3) Unlike the HemoShear Technology, this assay is carried out without constant perfusion, utilizing cell culture media that was customized to mimic plasma levels of propiogenic sources (amino acids and ketoacids) in PA and MMA patients during periods of relative metabolic stability (low propiogenic media) and acute metabolic crisis (high propiogenic media). PA and MMA pHeps, in static cell culture, were treated with Compound 5 (concentrations ranging from 0.1 μM to 100 μM) for 30 minutes in low propiogenic media, followed by either a continuation of low propiogenic media or a switch to the high propiogenic media for 1 hour. The media used during the 1-hour incubation contained propiogenic SIL amino acids and ketoacids which are metabolized into labeled P-CoA and M-CoA in the cells. The SIL amino acids and ketoacids were a mix of ^13C and MeD8 labelling, but their catabolism produced a SIL P-CoA (denoted as ^13C—P-CoA for simplicity) with the same mass, independent of the type of SIL (also true for ^13C-M-CoA).

[4] = system: Hepatocytes from propionic academia patients; assay: Ureagenesis (15N-urea) in HemoShear REVEAL-Tx technology (Example 3); type: cell-based, human; details: PA primary hepatocytes, treated day 5 to day 7, 15N-NH4Cl 4 hrs
Description: as §1
as §2, with “Effectively, this creates a flow-based culture system where hepatocytes are shielded from direct effects of flow, as they would be in vivo, but perfusion, nutrient gradients, and interstitial fluid movement are maintained.” left out
Hepatocytes are treated with increasing doses of Compound 5 (0, 0.1, 0.3, 1, 3, 10, 30, 100 μM) in the HemoShear REVEAL-Tx™ technology from day 5 to day 7. […] After 4 hrs, cells are washed 2× in saline solution and lysed, scraped and harvested using 80% methanol. ^15N-urea is measured by GCMSMS.

[5] = system: primary hepatocytes of propionic acidemia patients; assay: Propionyl-CoA from 13C-labelled sources in PA primary hepatocytes (Example 1); type: cell-based, human; details: 0-100 μM
Experimental: Primary hepatocytes isolated from livers of propionic acidemia patients are treated with increasing doses of Compound 5 (0, 0.1, 0.3, 1, 3, 10, 30, 100 μM) for 30 minutes. After 30 minutes the cells are challenged with the different sources of P-CoA, which may include 13C-KIVA (1 mM), 13C-isoleucine (3 mM), 13C-threonine (5 mM), 13C-methionine (5 mM), 13C-heptanoate (100 μM), or 13C-propionate (5 mM) for 60 minutes. At the end of the challenge period, media is removed and the cells are lysed with 70% MeCN and 0.1% TFA containing 100 μM of ethymalonyl-CoA as an internal standard and harvested. Cell lysates are processed for HTMS/MS analysis.

PA pHeps = assay: Static cell culture, PA pHeps, low/high propiogenic media; type: cell-based, human; details: for % change at 30 μM, 13C-Propionyl-CoA (13C-P-CoA): static cell culture; for Percent change (30 μM), 12C-Acetyl-CoA / Percent change (30 μM), CoASH: static culture 1.5 h
Experimental: as §3

[6] = PA pHeps, HemoShear Technology, average ± SD
[7] = PA pHeps, HemoShear Technology, exposed 6 days
[8] = static cell culture, high propiogenic media
[9] = static cell culture, low propiogenic media

## CCC(C)(C)C(=O)O [Compound 5, 2,2-dimethylbutyric acid]
[1]
  intracellular propionyl-CoA and methylmalonyl-CoA from all sources investigated: dose-dependent reduction
[2]; HemoShear Technology, PA and MMA pHeps, 6 days
  EC50 value for CoASH relative to EC50 value for reduction in disease biomarkers: 10 fold
[2]; Homo sapiens, Hepatocyte, exposure threshold used for comparison with clinical PK, read-out: estimated in vitro EC90
  EC90: 2.32 µg/mL (≈ 20 µM)
[2]; PA pHeps, HemoShear Technology, 30 μM
  average reduction in the C3/C2 ratio (log 2 fold change): −2.1±1.2 log 2 fold change
[2]; [6]
  % change at 30 μM, 2-Methylcitric acid (2MC): −78.6±12.9%
  % change at 30 μM, 12C-Acetyl-Carnitine (C2): 54 ± 80.6%
  % change at 30 μM, 12C-Propionyl-Carnitine (C3): −68.9±14.6% and −69.4 ± 16.2%
  % change at 30 μM, 12C-Propionyl-CoA (P-CoA): −78.8±10.9%
[2]; [7]
  Percent change at 30 μM, 12C-Acetyl-CoA: 54 ± 80.6%
  Percent change at 30 μM, CoASH: −31.3 ± 24.2%
[3]
  intracellular isovaleryl-CoA derived from 13C-leucine: dose-dependent reduction
MMA pHeps; [8]
  % change at 30 μM, 13C-Methymalonic acid: −91 ± 4%
  % change at 30 μM, 13C-Propionyl-CoA (13C-P-CoA): −75.9±7.3%
MMA pHeps; [9]
  % change at 30 μM, 12C-Methylmalonyl-CoA (13C-M-CoA): −76.5±13.2%
  % change at 30 μM, 13C-Methymalonic acid: −83.2 ± 5^ %
  % change at 30 μM, 13C-Propionyl-CoA (13C-P-CoA): −77.6±9.8%
MMA pHeps; high propiogenic media
  Percent change (30 μM), 12C-Acetyl-CoA: −14.6 ± 12.6%
  Percent change (30 μM), CoASH: −28.7 ± 7.3%
MMA pHeps; low propiogenic media
  Percent change (30 μM), 12C-Acetyl-CoA: −35.5 ± 18.1%
  Percent change (30 μM), CoASH: −47.7 ± 13.4%
[4]
  15N-urea (ureagenesis): dose-dependent increase
[5]
  intracellular propionyl-CoA from all sources investigated: dose-dependent reduction
PA pHeps; high propiogenic media
  % change at 30 μM, 13C-Propionyl-CoA (13C-P-CoA): −85.3±9.1%
  Percent change (30 μM), 12C-Acetyl-CoA: −27 ± 3.4%
  Percent change (30 μM), CoASH: −48 ± 14.3%
PA pHeps; low propiogenic media
  % change at 30 μM, 13C-Propionyl-CoA (13C-P-CoA): −76.4±12.6%
  Percent change (30 μM), 12C-Acetyl-CoA: −36.6 ± 13.5%
  Percent change (30 μM), CoASH: −55.2 ± 7.1%
